Values quoted from earlier work in patent US20090254175A1, “Valved stent for chronic venous insufficiency” (priority 2008, published 2009).

SMILES | solubility in acetic acid | solubility in acetone and glacial acetic acid (acetone and glacial acetic acid, compared with alcohol) | solubility in alcohol | solubility in water (water)
C[C@H](CCC(=O)O)[C@H]1CC[C@H]2[C@@H]3CC[C@@H]4C[C@H](O)CC[C@]4(C)[C@H]3C[C@H](O)[C@]12C [Deoxycholic acid] | soluble | to a lesser extent | soluble | sparingly soluble
C[C@H](CCC(=O)O)[C@H]1CC[C@H]2[C@@H]3[C@@H](O)C[C@@H]4C[C@H](O)CC[C@]4(C)[C@H]3CC[C@]12C [ursodeoxycholic acid, reference compound] | soluble |  | soluble | 
